Key:
Assay type in all cases: biochemical
MKK1 = MKK1 (Homo sapiens, UniProt Q02750); assay: Kinase profiling MKK1; conditions: 100 micromolar inhibitor concentration, 100 is no change
Description: (§1) Any value less that 25 is considered to be highly significant inhibition.

MKK2 = MKK2 (Homo sapiens, UniProt P36507); assay: Kinase profiling MKK2; conditions: 100 micromolar inhibitor concentration, 100 is no change
Description: as §1

MKK6 = target: T1, MKK6 (Homo sapiens, UniProt P52564); assay: Kinase profiling MKK6; conditions: 100 micromolar inhibitor concentration, 100 is no change
T1 sequence (P52564 1-334): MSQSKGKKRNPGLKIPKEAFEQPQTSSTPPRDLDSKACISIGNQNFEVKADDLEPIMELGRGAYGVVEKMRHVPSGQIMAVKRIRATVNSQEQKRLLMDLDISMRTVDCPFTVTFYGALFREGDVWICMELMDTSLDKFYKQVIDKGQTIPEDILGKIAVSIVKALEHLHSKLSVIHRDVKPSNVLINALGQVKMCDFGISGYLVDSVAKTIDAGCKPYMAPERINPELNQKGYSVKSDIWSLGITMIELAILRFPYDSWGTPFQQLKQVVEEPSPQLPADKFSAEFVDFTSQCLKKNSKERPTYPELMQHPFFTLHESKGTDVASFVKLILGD
Description: as §1

ERK2 = ERK2 (Homo sapiens, UniProt P28482); assay: Kinase profiling ERK2; conditions: 100 micromolar inhibitor concentration, 100 is no change
Description: as §1

JNK2 = JNK2 (Homo sapiens, UniProt P45984); assay: Kinase profiling JNK2; conditions: 100 micromolar inhibitor concentration, 100 is no change
Description: as §1

RSK2 = RSK2 (Homo sapiens, UniProt P51812); assay: Kinase profiling RSK2; conditions: 100 micromolar inhibitor concentration, 100 is no change
Chain of RSK2 (P51812 whole entry, species assumed): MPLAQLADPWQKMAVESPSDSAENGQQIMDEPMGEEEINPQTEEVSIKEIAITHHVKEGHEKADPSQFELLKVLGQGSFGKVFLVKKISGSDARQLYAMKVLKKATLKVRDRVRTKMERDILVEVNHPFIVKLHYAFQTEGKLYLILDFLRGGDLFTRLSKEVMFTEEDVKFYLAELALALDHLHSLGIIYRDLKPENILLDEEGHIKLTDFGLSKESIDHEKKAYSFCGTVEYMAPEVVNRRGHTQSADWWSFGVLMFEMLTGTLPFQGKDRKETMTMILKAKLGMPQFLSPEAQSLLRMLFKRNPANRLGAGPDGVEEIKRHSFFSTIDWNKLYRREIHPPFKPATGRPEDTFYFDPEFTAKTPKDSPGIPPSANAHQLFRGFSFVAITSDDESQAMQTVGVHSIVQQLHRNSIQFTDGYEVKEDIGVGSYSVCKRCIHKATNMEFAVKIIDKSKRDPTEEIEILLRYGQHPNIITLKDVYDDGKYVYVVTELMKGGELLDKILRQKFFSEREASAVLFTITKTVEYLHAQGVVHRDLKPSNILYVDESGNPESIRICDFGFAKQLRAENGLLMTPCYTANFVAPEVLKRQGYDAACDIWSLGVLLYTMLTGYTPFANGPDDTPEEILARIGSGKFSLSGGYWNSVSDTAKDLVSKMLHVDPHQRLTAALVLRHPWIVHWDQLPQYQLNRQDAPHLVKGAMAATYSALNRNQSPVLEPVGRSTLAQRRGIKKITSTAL
Description: as §1

PKBa = PKBa (Homo sapiens, UniProt P31749); assay: Kinase profiling PKBa
Description: as §1

PKA = PKA (Homo sapiens, UniProt P17612); assay: Kinase profiling PKA; conditions: 100 micromolar inhibitor concentration, 100 is no change
Description: as §1

ROCK 2 = ROCK 2 (Homo sapiens, UniProt O75116); assay: Kinase profiling ROCK 2; conditions: 100 micromolar inhibitor concentration, 100 is no change
Description: as §1

PKCz = target: T2, PKCz (Homo sapiens, UniProt Q05513); assay: Kinase profiling PKCz; conditions: 100 micromolar inhibitor concentration, 100 is no change
T2 sequence (Q05513 1-592): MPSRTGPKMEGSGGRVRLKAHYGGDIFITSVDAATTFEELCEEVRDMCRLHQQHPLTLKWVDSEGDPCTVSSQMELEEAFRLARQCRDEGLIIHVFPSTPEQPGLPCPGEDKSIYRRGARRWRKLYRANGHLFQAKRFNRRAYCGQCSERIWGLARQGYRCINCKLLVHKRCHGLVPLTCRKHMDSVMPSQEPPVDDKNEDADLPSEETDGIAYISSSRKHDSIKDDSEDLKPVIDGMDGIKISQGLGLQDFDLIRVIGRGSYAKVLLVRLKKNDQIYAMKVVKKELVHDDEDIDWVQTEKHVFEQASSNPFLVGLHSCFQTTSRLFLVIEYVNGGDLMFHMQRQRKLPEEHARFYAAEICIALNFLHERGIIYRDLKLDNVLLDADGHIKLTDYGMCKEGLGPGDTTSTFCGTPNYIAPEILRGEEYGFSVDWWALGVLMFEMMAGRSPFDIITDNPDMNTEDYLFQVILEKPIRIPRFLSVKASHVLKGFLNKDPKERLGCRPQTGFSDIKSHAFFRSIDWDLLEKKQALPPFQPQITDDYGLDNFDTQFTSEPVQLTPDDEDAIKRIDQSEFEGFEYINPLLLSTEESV
Description: as §1

CAMK1 = CAMK1 (Homo sapiens, UniProt Q14012); assay: Kinase profiling CAMK1; conditions: 100 micromolar inhibitor concentration, 100 is no change
Chain of CAMK1 (Q14012 whole entry, species assumed): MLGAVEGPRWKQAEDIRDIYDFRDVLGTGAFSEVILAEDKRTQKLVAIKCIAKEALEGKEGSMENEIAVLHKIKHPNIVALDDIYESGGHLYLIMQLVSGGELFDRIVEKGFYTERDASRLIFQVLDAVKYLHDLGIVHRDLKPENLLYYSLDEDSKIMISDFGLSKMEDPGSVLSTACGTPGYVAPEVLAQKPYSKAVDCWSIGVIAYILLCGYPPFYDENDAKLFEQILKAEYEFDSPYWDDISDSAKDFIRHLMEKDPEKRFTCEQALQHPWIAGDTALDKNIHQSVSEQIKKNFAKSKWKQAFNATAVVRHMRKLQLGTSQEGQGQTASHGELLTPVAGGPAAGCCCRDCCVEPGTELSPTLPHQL
Description: as §1

NEK6 = NEK6 (Homo sapiens, UniProt Q9HC98); assay: Kinase profiling NEK6; conditions: 100 micromolar inhibitor concentration, 100 is no change
Description: as §1

SRPK1 = SRPK1 (Homo sapiens, UniProt Q96SB4); assay: Kinase profiling SRPK1; conditions: 100 micromolar inhibitor concentration, 100 is no change
Description: as §1

EF2K = EF2K (Homo sapiens, UniProt O00418); assay: Kinase profiling EF2K; conditions: 100 micromolar inhibitor concentration, 100 is no change
Description: as §1

HIPK2 = HIPK2 (Homo sapiens, UniProt Q9H2X6); assay: Kinase profiling HIPK2; conditions: 100 micromolar inhibitor concentration, 100 is no change
Chain of HIPK2 (Q9H2X6 whole entry, species assumed): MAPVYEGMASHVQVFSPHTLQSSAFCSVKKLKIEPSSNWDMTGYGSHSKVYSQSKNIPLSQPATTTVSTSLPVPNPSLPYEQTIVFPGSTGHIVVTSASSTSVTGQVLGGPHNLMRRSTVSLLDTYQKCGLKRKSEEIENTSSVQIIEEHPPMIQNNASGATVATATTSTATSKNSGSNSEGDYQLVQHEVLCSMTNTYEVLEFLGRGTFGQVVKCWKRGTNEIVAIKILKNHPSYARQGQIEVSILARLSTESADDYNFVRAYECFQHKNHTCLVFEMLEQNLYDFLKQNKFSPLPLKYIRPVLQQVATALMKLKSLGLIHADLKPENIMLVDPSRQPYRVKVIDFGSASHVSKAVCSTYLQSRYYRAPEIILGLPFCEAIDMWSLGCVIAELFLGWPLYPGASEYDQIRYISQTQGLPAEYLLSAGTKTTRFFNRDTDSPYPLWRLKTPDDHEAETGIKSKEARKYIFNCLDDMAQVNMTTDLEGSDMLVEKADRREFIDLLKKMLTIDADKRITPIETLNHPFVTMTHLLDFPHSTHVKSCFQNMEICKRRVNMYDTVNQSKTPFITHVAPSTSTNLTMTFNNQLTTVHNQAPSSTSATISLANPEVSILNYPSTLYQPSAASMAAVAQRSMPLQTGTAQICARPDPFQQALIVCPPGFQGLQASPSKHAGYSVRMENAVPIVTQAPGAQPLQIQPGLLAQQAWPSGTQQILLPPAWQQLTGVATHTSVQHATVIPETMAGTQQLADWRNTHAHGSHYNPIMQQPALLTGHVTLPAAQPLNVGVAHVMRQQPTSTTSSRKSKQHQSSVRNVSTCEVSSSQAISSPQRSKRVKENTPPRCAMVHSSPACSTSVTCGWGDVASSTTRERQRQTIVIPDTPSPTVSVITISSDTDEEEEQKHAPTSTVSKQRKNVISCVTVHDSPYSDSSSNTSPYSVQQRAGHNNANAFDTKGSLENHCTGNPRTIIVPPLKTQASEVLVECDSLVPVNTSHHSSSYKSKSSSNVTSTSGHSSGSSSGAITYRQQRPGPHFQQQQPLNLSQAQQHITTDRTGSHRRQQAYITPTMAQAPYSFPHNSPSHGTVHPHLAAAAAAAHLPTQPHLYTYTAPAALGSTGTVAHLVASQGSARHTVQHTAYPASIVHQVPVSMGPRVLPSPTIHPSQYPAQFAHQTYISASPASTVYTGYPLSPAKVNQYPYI
Description: as §1

TTK = target: T3, TTK (Homo sapiens, UniProt P33981); assay: Kinase profiling TTK; conditions: 100 micromolar inhibitor concentration, 100 is no change
T3 sequence (P33981 1-857): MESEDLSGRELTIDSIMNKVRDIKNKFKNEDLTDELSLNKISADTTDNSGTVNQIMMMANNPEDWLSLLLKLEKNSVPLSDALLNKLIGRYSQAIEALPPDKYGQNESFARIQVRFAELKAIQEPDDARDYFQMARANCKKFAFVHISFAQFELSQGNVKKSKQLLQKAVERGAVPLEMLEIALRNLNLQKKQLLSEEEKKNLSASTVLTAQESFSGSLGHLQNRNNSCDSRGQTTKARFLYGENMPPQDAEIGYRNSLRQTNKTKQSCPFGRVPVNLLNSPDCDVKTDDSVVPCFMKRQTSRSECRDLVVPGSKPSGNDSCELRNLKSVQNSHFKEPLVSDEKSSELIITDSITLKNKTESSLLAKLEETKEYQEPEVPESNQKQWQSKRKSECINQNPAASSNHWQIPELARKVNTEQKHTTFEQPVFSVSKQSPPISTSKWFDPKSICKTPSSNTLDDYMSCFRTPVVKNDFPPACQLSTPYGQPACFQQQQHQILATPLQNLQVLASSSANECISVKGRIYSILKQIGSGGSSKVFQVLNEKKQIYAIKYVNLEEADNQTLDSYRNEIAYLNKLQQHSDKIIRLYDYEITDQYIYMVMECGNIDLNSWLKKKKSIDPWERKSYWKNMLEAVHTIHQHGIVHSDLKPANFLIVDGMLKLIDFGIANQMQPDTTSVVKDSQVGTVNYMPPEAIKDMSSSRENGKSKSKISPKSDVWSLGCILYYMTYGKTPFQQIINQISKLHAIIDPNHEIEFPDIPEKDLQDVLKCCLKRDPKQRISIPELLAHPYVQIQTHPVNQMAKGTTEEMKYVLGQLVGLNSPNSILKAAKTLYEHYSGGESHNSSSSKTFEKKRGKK
Description: as §1

Src = Src (Homo sapiens, UniProt P12931); assay: Kinase profiling Src; conditions: 100 micromolar inhibitor concentration, 100 is no change
Chain of Src (P12931 whole entry, species assumed): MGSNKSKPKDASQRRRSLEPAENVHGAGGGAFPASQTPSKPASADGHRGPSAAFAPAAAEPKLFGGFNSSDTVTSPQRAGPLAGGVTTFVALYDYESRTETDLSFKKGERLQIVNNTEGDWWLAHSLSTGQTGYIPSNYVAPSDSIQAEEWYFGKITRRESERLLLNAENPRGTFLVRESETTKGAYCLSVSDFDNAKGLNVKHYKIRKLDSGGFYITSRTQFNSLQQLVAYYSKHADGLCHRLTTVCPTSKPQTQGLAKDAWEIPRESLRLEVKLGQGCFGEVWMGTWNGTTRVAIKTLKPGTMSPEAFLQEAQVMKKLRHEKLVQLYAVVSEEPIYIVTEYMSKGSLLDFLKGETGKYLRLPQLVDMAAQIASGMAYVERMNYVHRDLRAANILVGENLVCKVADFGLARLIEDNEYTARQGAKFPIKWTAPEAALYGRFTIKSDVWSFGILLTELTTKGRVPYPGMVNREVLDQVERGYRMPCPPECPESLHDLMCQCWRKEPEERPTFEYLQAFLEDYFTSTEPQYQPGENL
Description: as §1

Lck = Lck (Homo sapiens, UniProt P06239); assay: Kinase profiling Lck; conditions: 100 micromolar inhibitor concentration, 100 is no change
Chain of Lck (P06239 whole entry, species assumed): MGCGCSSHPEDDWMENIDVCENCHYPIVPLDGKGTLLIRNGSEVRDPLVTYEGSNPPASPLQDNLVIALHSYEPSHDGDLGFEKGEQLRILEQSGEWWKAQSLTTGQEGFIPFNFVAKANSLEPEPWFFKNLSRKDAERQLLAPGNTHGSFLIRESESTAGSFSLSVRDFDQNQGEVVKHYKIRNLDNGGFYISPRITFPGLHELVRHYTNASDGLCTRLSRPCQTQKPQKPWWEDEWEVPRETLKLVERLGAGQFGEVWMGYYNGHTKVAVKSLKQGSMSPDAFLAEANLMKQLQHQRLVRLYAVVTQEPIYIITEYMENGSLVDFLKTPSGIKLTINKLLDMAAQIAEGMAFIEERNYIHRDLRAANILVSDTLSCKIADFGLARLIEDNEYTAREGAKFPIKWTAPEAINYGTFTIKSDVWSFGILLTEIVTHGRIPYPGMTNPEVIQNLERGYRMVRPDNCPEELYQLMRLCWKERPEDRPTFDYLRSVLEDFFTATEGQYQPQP
Description: as §1

JAK2 = JAK2 (Homo sapiens, UniProt O60674); assay: Kinase profiling JAK2; conditions: 100 micromolar inhibitor concentration, 100 is no change
Chain of JAK2 (O60674 whole entry, species assumed): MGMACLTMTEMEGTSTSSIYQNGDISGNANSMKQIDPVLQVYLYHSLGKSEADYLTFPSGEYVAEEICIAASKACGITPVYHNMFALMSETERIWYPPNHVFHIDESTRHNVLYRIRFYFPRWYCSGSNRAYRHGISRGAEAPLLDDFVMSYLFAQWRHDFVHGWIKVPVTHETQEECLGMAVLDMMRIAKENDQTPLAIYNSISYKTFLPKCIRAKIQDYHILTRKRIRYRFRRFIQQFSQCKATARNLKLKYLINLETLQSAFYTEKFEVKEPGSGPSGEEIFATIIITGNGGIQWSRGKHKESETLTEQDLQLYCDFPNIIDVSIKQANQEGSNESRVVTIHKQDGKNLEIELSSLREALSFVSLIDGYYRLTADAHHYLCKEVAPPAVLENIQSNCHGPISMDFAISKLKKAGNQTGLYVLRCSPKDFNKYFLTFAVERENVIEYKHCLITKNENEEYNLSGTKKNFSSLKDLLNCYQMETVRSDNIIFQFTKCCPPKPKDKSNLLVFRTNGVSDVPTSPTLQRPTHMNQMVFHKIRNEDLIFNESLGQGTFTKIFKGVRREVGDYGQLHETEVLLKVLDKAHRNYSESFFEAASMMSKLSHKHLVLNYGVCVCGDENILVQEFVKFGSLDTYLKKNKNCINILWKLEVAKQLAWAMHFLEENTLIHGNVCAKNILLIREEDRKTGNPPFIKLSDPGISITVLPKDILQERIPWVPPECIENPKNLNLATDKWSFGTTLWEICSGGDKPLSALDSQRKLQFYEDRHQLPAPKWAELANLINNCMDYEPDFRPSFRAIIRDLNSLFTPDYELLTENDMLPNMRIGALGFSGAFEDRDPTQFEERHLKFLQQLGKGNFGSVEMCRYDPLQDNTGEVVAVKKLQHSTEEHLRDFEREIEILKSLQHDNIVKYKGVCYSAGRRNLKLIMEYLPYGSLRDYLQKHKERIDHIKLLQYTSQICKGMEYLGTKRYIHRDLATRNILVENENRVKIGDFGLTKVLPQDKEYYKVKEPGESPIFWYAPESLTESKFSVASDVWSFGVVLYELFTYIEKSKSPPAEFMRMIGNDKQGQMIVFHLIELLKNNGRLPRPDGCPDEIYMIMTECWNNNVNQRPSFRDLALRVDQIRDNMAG
Description: as §1

EPH-A2 = EPH-A2 (Homo sapiens, UniProt P29317); assay: Kinase profiling EPH-A2; conditions: 100 micromolar inhibitor concentration, 100 is no change
Description: as §1

Chain of MKK1 (Q02750 whole entry, species assumed): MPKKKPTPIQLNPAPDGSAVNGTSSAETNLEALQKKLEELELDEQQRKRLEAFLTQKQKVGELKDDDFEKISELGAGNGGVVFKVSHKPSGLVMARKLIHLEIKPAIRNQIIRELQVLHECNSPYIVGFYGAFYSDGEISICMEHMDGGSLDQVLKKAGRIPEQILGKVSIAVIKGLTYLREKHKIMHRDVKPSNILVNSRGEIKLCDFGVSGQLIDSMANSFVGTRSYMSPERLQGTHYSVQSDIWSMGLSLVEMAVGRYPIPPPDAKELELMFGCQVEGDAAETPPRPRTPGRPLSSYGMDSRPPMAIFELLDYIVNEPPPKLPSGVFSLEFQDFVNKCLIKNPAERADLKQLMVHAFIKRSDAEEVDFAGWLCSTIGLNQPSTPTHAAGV

Compound: CC(=O)Nc1nc2ccc(C(F)(F)F)cc2s1 [Compound 01-90]
- remaining activity at 100 µM (MKK1; read-out: residual kinase activity, MKK1): 80%
- remaining activity at 100 µM (MKK2; read-out: residual kinase activity, MKK2): 73%
- remaining activity at 100 µM (MKK6; read-out: residual kinase activity, MKK6): 85%
- remaining activity at 100 µM (ERK2; read-out: residual kinase activity, ERK2): 102%
- remaining activity at 100 µM (JNK2; read-out: residual kinase activity, JNK2): 87%
- remaining activity at 100 µM (RSK2; read-out: residual kinase activity, RSK2): 92%
- remaining activity at 100 µM (PKBa; read-out: residual kinase activity, PKBa): 104%
- remaining activity at 100 µM (PKA; read-out: residual kinase activity, PKA): 87%
- remaining activity at 100 µM (ROCK 2; read-out: residual kinase activity, ROCK 2): 80%
- remaining activity at 100 µM (PKCz; read-out: residual kinase activity, PKCz): 81%
- remaining activity at 100 µM (CAMK1; read-out: residual kinase activity, CAMK1): 64%
- remaining activity at 100 µM (NEK6; read-out: residual kinase activity, NEK6): 107%
- remaining activity at 100 µM (SRPK1; read-out: residual kinase activity, SRPK1): 41%
- remaining activity at 100 µM (EF2K; read-out: residual kinase activity, EF2K): 103%
- remaining activity at 100 µM (HIPK2; read-out: residual kinase activity, HIPK2): 16%
- remaining activity at 100 µM (TTK; read-out: residual kinase activity, TTK): 49%
- remaining activity at 100 µM (Src; read-out: residual kinase activity, Src): 63%
- remaining activity at 100 µM (Lck; read-out: residual kinase activity, Lck): 53%
- remaining activity at 100 µM (JAK2; read-out: residual kinase activity, JAK2): 73%
- remaining activity at 100 µM (EPH-A2; read-out: residual kinase activity, EPH-A2): 67%

Compound: O=C(Nc1nc2ccc(O)cc2s1)c1cccnc1 [Compound 08-44]
- residual kinase activity, MKK1 (MKK1): 67
- residual kinase activity, MKK2 (MKK2): 48
- residual kinase activity, MKK6 (MKK6): 107
- residual kinase activity, ERK2 (ERK2): 75
- residual kinase activity, JNK2 (JNK2): 90
- residual kinase activity, RSK2 (RSK2): 56
- residual kinase activity, PKBa (PKBa; 100 micromolar inhibitor concentration, 100 is no change): 83
- residual kinase activity, PKA (PKA): 92
- residual kinase activity, ROCK 2 (ROCK 2): 42
- residual kinase activity, PKCz (PKCz): 81
- residual kinase activity, CAMK1 (CAMK1): 42
- residual kinase activity, NEK6 (NEK6): 84
- residual kinase activity, SRPK1 (SRPK1): 16
- residual kinase activity, EF2K (EF2K): 67
- residual kinase activity, HIPK2 (HIPK2): 19
- residual kinase activity, TTK (TTK): 22
- residual kinase activity, Src (Src): 72
- residual kinase activity, Lck (Lck): 82
- residual kinase activity, JAK2 (JAK2): 30
- residual kinase activity, EPH-A2 (EPH-A2): 81

Source: patent US10231954B2, “Neurodegenerative therapies” (LYTIX BIOPHARMA AS, priority 2014, dated 2019)
